Measured values: patent US20250312352A1, “GLP-1R MODULATING COMPOUNDS” (Gilead Sciences, Inc., priority 2021, published 2025)

biological target: T1, GLP-1R (Homo sapiens, UniProt P43220); test: GLP-1R activation cAMP assay (Assay 1 or Assay 2); format: cell-based; conditions: cAMP increase in CHO cells stably expressing GLP-1R; compounds run on one of the two cAMP assays
T1 construct: host or cells: CHO cells
Summary of the method: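 CHO cells stably expressing human GLP-1R were incubated 1 h in HBSS/20 mM HEPES/0.1% BSA, then exposed to 10-point agonist dilutions for 30 min at 37 °C. cAMP increase was measured with an HTRF Gs dynamic kit; EC50 from sigmoidal fit of response versus log concentration.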

T1 sequence (P43220 24-463): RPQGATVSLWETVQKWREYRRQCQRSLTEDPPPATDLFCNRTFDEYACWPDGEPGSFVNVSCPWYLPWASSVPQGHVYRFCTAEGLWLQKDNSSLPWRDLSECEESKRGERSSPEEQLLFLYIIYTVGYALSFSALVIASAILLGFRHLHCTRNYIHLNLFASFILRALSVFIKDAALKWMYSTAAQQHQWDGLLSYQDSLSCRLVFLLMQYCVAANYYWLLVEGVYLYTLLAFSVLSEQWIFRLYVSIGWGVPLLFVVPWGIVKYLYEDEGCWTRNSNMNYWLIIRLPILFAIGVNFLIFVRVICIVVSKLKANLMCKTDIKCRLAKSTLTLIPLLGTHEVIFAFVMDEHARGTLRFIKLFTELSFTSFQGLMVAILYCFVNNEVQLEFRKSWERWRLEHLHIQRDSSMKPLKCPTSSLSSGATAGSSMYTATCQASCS

Structure (SMILES) | EC50
O=C(O)c1ccc2nc(Cc3cc(F)c(-c4cccc(OCc5ccn(-c6cnn(C(F)F)c6)n5)n4)cc3F)n(C[C@@H]3CCO3)c2c1 [Example 83, (S)-2-(4-(6-((1′-(difluoromethyl)-1′H-[1,4′-bipyrazol]-3-yl)methoxy)pyridin-2-yl)-2,5-difluorobenzyl)-1-(oxetan-2-ylmethyl)-1H-benzo[d]imidazole-6-carboxylic acid] | 3.51 nM
NC(=O)c1nc(COc2cccc(-c3cc(F)c(Cc4nc5ccc(C(=O)O)cc5n4C[C@@H]4CCO4)cc3F)n2)cs1 [Example 8, (S)-2-(4-(6-((2-carbamoylthiazol-4-yl)methoxy)pyridin-2-yl)-2,5-difluorobenzyl)-1-(oxetan-2-ylmethyl)-1H-benzo[d]imidazole-6-carboxylic acid] | 0.92 nM
COCCn1c(Cc2cc(F)c(-c3cccc(OCc4ccc(C#CC5CNC5)cc4F)n3)cc2F)nc2ccc(C(=O)O)cc21 [Example 232, 2-(4-(6-((4-(azetidin-3-ylethynyl)-2-fluorobenzyl)oxy)pyridin-2-yl)-2,5-difluorobenzyl)-1-(2-methoxyethyl)-1H-benzo[d]imidazole-6-carboxylic acid] | 5.65 nM
O=C(O)c1ccc2nc(Cc3cc(F)c(-c4cccc(OCc5nnc(C6CC6)o5)n4)cc3F)n(C[C@@H]3CCO3)c2c1 [Example 67, (S)-2-(4-(6-((5-cyclopropyl-1,3,4-oxadiazol-2-yl)methoxy)pyridin-2-yl)-2,5-difluorobenzyl)-1-(oxetan-2-ylmethyl)-1H-benzo[d]imidazole-6-carboxylic acid] | 6.52 nM
O=C(O)c1cc(F)c2nc(Cc3ccc(-c4cccc(OCc5cc6n(n5)CCC6)n4)c(F)c3)n(C[C@@H]3CCO3)c2c1 [Example 69, (S)-2-(4-(6-((5,6-dihydro-4H-pyrrolo[1,2-b]pyrazol-2-yl)methoxy)pyridin-2-yl)-3-fluorobenzyl)-4-fluoro-1-(oxetan-2-ylmethyl)-1H-benzo[d]imidazole-6-carboxylic acid] | 2.59 nM
N#Cc1csc(COc2cccc(-c3cc(F)c(Cc4nc5ccc(C(=O)O)cc5n4C[C@@H]4CCO4)cc3F)n2)c1 [Example 130, (S)-2-(4-(6-((4-cyanothiophen-2-yl)methoxy)pyridin-2-yl)-2,5-difluorobenzyl)-1-(oxetan-2-ylmethyl)-1H-benzo[d]imidazole-6-carboxylic acid] | 0.57 nM
Cc1cc(Cc2nc3ccc(C(=O)O)cc3n2[C@@H]2COCC2(C)C)c(Cl)cc1-c1cccc(OCc2ncc(C(C)(F)F)s2)n1 [Example 428, (S)-2-(2-chloro-4-(6-((5-(1,1-difluoroethyl)thiazol-2-yl)methoxy)pyridin-2-yl)-5-methylbenzyl)-1-(4,4-dimethyltetrahydrofuran-3-yl)-1H-benzo[d]imidazole-6-carboxylic acid] | 3.63 nM
COCCn1c(Cc2cc(F)c(-c3cccc(OCc4cn(-c5ccccc5)cn4)n3)cc2F)nc2ccc(C(=O)O)cc21 [Example 122, 2-(2,5-difluoro-4-(6-((1-phenyl-1H-imidazol-4-yl)methoxy)pyridin-2-yl)benzyl)-1-(2-methoxyethyl)-1H-benzo[d]imidazole-6-carboxylic acid] | 695 nM
COc1nnc(COc2cccc(-c3cc(F)c(Cc4nc5ccc(C(=O)O)cc5n4CC4(C(F)F)CC4)cc3F)n2)s1 [Example 276, 2-(2,5-difluoro-4-(6-((5-methoxy-1,3,4-thiadiazol-2-yl)methoxy)pyridin-2-yl)benzyl)-1-((1-(difluoromethyl)cyclopropyl)methyl)-1H-benzo[d]imidazole-6-carboxylic acid] | 1.31 nM
O=C(O)c1ccc2nc(Cc3cc(F)c(-c4cccc(OCc5cc6n(n5)CCOC6)n4)cc3F)n(C[C@@H]3CCO3)c2c1 [Example 7, (S)-2-(4-(6-((6,7-dihydro-4H-pyrazolo[5,1-c][1,4]oxazin-2-yl)methoxy)pyridin-2-yl)-2,5-difluorobenzyl)-1-(oxetan-2-ylmethyl)-1H-benzo[d]imidazole-6-carboxylic acid] | 3.71 nM
O=C(O)c1ccc2nc(Cc3cc(F)c(-c4cccc(OCc5csc(Cl)n5)n4)cc3F)n(C[C@@H]3CCO3)c2c1 [Example 50, (S)-2-(4-(6-((2-chlorothiazol-4-yl)methoxy)pyridin-2-yl)-2,5-difluorobenzyl)-1-(oxetan-2-ylmethyl)-1H-benzo[d]imidazole-6-carboxylic acid] | 0.67 nM

The next compounds have a lower EC50 than those just listed; values first:

EC50 | Structure (SMILES)
0.16 nM | O=C(O)c1ccc2nc(Cc3cc(F)c(-c4cccc(OCc5cnc(-c6cnn(C7COC7)c6)cc5F)n4)cc3F)n(C[C@@H]3CCO3)c2c1 [Example 162, (S)-2-(2,5-difluoro-4-(6-((4-fluoro-6-(1-(oxetan-3-yl)-1H-pyrazol-4-yl)pyridin-3-yl)methoxy)pyridin-2-yl)benzyl)-1-(oxetan-2-ylmethyl)-1H-benzo[d]imidazole-6-carboxylic acid]
0.44 nM | O=C(O)c1ccc2nc(Cc3cc(F)c(-c4cccc(OCc5cc6ccccn6n5)n4)cc3F)n(C[C@@H]3CCO3)c2c1 [Example 28, (S)-2-(2,5-difluoro-4-(6-(pyrazolo[1,5-a]pyridin-2-ylmethoxy)pyridin-2-yl)benzyl)-1-(oxetan-2-ylmethyl)-1H-benzo[d]imidazole-6-carboxylic acid]
0.32 nM | O=C(O)c1ccc2nc(Cc3cc(F)c(-c4cccc(OCc5cnc(C(=O)NCC(F)F)cc5Cl)n4)cc3F)n(C[C@@H]3CCO3)c2c1 [Example 192, (S)-2-(4-(6-((4-chloro-6-((2,2-difluoroethyl)carbamoyl)pyridin-3-yl)methoxy)pyridin-2-yl)-2,5-difluorobenzyl)-1-(oxetan-2-ylmethyl)-1H-benzo[d]imidazole-6-carboxylic acid]
0.07 nM | COc1cc(C(=O)NC2(C#N)CC2)ncc1COc1cccc(-c2cc(F)c(Cc3nc4c(F)cc(C(=O)O)cc4n3C[C@@H]3CCO3)cc2F)n1 [Example 42, (S)-2-(4-(6-((6-((1-cyanocyclopropyl)carbamoyl)-4-methoxypyridin-3-yl)methoxy)pyridin-2-yl)-2,5-difluorobenzyl)-4-fluoro-1-(oxetan-2-ylmethyl)-1H-benzo[d]imidazole-6-carboxylic acid]
0.318 nM | CC1(C)COC[C@H]1n1c(Cc2cc(F)c(-c3cccc(OCc4ncc(C(F)(F)F)s4)n3)cc2F)nc2ccc(C(=O)O)cc21 [Example 414, (S)-2-(2,5-difluoro-4-(6-((5-(trifluoromethyl)thiazol-2-yl)methoxy)pyridin-2-yl)benzyl)-1-(4,4-dimethyltetrahydrofuran-3-yl)-1H-benzo[d]imidazole-6-carboxylic acid]
0.044 nM | COc1nnc(COc2cccc(-c3cc(F)c(Cc4nc5ccc(C(=O)O)cc5n4[C@@H]4COCC4(C)C)cc3C)n2)s1 [Example 261, (S)-1-(4,4-dimethyltetrahydrofuran-3-yl)-2-(2-fluoro-4-(6-((5-methoxy-1,3,4-thiadiazol-2-yl)methoxy)pyridin-2-yl)-5-methylbenzyl)-1H-benzo[d]imidazole-6-carboxylic acid]
0.44 nM | O=C(O)c1ccc2nc(Cc3cc(F)c(-c4cccc(OCc5cc(C(F)(F)F)cs5)n4)cc3F)n(C[C@@H]3CCO3)c2c1 [Example 55, (S)-2-(2,5-difluoro-4-(6-((4-(trifluoromethyl)thiophen-2-yl)methoxy)pyridin-2-yl)benzyl)-1-(oxetan-2-ylmethyl)-1H-benzo[d]imidazole-6-carboxylic acid]
0.335 nM | O=C(O)c1ccc2nc(Cc3cc(F)c(-c4cccc(OCc5ccc(C#Cc6cn[nH]c6)nc5)n4)cc3F)n(C[C@@H]3CCO3)c2c1 [Example 438, (S)-2-(4-(6-((6-((1H-pyrazol-4-yl)ethynyl)pyridin-3-yl)methoxy)pyridin-2-yl)-2,5-difluorobenzyl)-1-(oxetan-2-ylmethyl)-1H-benzo[d]imidazole-6-carboxylic acid]
0.21 nM | O=C(O)c1ccc2nc(Cc3cc(F)c(-c4cccc(OCc5ncc(-c6cnn(C7CC7)c6)s5)n4)cc3F)n(C[C@@H]3CCO3)c2c1 [Example 90, (S)-2-(4-(6-((5-(1-cyclopropyl-1H-pyrazol-4-yl)thiazol-2-yl)methoxy)pyridin-2-yl)-2,5-difluorobenzyl)-1-(oxetan-2-ylmethyl)-1H-benzo[d]imidazole-6-carboxylic acid]
0.25 nM | COc1cc(C#Cc2cnn(C)c2)ncc1COc1cccc(-c2cc(F)c(Cc3nc4ccc(C(=O)O)cc4n3C[C@@H]3CCO3)cc2F)n1 [Example 145, (S)-2-(2,5-difluoro-4-(6-((4-methoxy-6-((1-methyl-1H-pyrazol-4-yl)ethynyl)pyridin-3-yl)methoxy)pyridin-2-yl)benzyl)-1-(oxetan-2-ylmethyl)-1H-benzo[d]imidazole-6-carboxylic acid]
0.305 nM | Cc1ncc(C#Cc2ccc(COc3cccc(-c4cc(F)c(Cc5nc6ccc(C(=O)O)cc6n5C[C@@H]5CCO5)cc4F)n3)cc2)cn1 [Example 305, (S)-2-(2,5-difluoro-4-(6-((4-((2-methylpyrimidin-5-yl)ethynyl)benzyl)oxy)pyridin-2-yl)benzyl)-1-(oxetan-2-ylmethyl)-1H-benzo[d]imidazole-6-carboxylic acid]
0.33 nM | O=C(O)c1ccc2nc(Cc3cc(F)c(-c4cccc(OCc5ccc(C#Cc6nccs6)cc5F)n4)cc3F)n(C[C@@H]3CCO3)c2c1 [Example 141, (S)-2-(2,5-difluoro-4-(6-((2-fluoro-4-(thiazol-2-ylethynyl)benzyl)oxy)pyridin-2-yl)benzyl)-1-(oxetan-2-ylmethyl)-1H-benzo[d]imidazole-6-carboxylic acid]
0.027 nM | COc1nnc(COc2cccc(-c3cc(F)c(Cc4nc5c(F)cc(C(=O)O)cc5n4[C@@H]4COCC4(C)C)cc3F)n2)s1 [Example 345, (S)-2-(2,5-difluoro-4-(6-((5-methoxy-1,3,4-thiadiazol-2-yl)methoxy)pyridin-2-yl)benzyl)-1-(4,4-dimethyltetrahydrofuran-3-yl)-4-fluoro-1H-benzo[d]imidazole-6-carboxylic acid]
